{
  "source": "patent US20060111331A1",
  "about": "“Gave10 agonists for treating inflammation” (Aventis Pharmaceuticals Inc., priority 2004, published 2006)",
  "format_in_all_cases": "cell-based",
  "key": {"GAVE10 [1]": {"biological_target": "T1, GAVE10 (Homo sapiens, UniProt Q8TDU6)", "T1 construct": "expressed in transfected cells; host or cells: PSC cells", "T1 sequence (Q8TDU6 1-330)": "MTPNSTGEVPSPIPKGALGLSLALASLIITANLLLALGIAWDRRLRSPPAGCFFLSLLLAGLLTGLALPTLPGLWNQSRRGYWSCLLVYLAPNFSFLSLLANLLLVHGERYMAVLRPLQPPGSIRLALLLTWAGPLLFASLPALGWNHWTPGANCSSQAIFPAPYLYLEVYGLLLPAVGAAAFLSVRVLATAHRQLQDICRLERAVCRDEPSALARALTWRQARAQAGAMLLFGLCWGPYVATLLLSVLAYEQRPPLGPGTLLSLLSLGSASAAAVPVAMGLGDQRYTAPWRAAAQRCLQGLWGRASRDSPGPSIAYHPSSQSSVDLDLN", "assay": "cAMP assay, PSC cells transfected with GAVE10", "details": "PSC cells alone vs PSC cells transfected with GAVE10; FIG. 2", "protocol": "Compounds A, B, and C and LCA were incubated, respectively, with PSC cells alone and PSC cells transfected with GAVE 10, and the cells were then assayed in a cAMP assay."}, "GAVE10 [2]": {"biological_target": "T1, GAVE10", "assay": "FLIPR assay, PSC cells transfected with GAVE10 (calcium signaling)", "details": "PSC cells alone vs PSC cells transfected with GAVE10; FIG. 1", "protocol": "Compounds A, B, and C and lithocholic acid (LCA) were incubated, respectively, with PSC cells alone and PSC cells transfected with GAVE10, and the cells were then assayed in a FLIPR® assay.\nTo screen for agonists of human GAVE10, hGAVE10 was coupled artificially to a Gq mechanism. Activation of the Gq mechanism stimulates the release of Ca^2+ from sarcoplasmic reticulum vesicles within the cell. The Ca^2+ was released into the cytoplasm where it can be detected using Ca^2+ chelating dyes. A Fluorometric Imaging Plate Reader (i.e., a FLIPR® apparatus, Molecular Devices) was used to monitor any resulting changes in fluorescence. The activity of an agonist was reflected by any increase in fluorescence.\nCHO-KI cells expressing hGAVE10 were pre-engineered to express an indiscriminate form of Gq protein (G016). To prepare such cells, Gα16-coupled CHO cells were obtained commercially (Molecular Devices LIVEWARE™ cells, Catalog No. RD-HGAI6) and the protocol in Example 2 followed to facilitate expression of hGAVE10 in those cells. The cells were maintained in log phase of growth at 37° C. and 5% CO2 in F12 Ham's media (Gibco/BRL, Catalog No. 11765-054) containing 10% fetal bovine serum, 100 IU/ml penicillin (Gibco/BRL, Catalog No. 15140-148), 100 μg/ml streptomycin (Catalog No. 15140-148, Gibco/BRL), 400 μg/ml genetecin (G418) (Gibco/BRL, Catalog No. 10131-035) and 200 μg/ml zeocin (Invitrogen, Catalog No. R250-05). […]\nThe CCD camera (Princeton Instruments) of the FLIPR® II (Molecular Devices) instrument was set at an f-stop of 2.0 and an exposure of 0.4 seconds. […] Changes in fluorescence were measured for 10 seconds prior to compound addition. After the addition of the compound, fluorescence was measured every second for the first minute followed by exposures taken every six seconds for a total experimental analysis time of three minutes. […] The maximum fluorescence changes for the first 80 scans were recorded as a measure of agonist activity and compared to the maximum fluorescence change induced by 10 μM ATP (Sigma A9062)."}, "[3]": {"system": "TNFα release in mouse macrophages", "assay": "TNFα release assay in mouse macrophages", "details": "FIG. 3"}, "[4]": {"system": "IL-6 production in mouse macrophages", "assay": "IL-6 production in mouse macrophages", "details": "male and female, effect more pronounced in male, FIG. 4"}},
  "data": [
    {"smiles": "CC(CCC(=O)NCC[N+](C)(C)C)C1CCC2C3CCC4CC(O)CCC4(C)C3CC(O)C12C", "note": "(stereo not drawn) [Compound A]", "values": [
      {"measurement": "increase of intracellular cAMP via GAVE10 activation", "setting": "GAVE10 [1]", "value": "activate GAVE10 to increase intracellular cAMP"},
      {"measurement": "activation of calcium-signaling pathways via GAVE10 (FLIPR)", "setting": "GAVE10 [2]", "value": "bind to GAVE10 to activate calcium-signaling pathways"},
      {"measurement": "inhibition of TNFα release", "setting": "[3]", "value": "inhibited TNFα release"}
    ]},
    {"smiles": "CC(CCC(=O)N1CCN(C)CC1)C1CCC2C3CCC4CC(O)CCC4(C)C3CC(O)C12C", "note": "(stereo not drawn) [Compound B]", "values": [
      {"measurement": "increase of intracellular cAMP via GAVE10 activation", "setting": "GAVE10 [1]", "value": "activate GAVE10 to increase intracellular cAMP"},
      {"measurement": "activation of calcium-signaling pathways via GAVE10 (FLIPR)", "setting": "GAVE10 [2]", "value": "bind to GAVE10 to activate calcium-signaling pathways"},
      {"measurement": "inhibition of TNFα release", "setting": "[3]", "value": "inhibited TNFα release"}
    ]},
    {"smiles": "CC(CCC(=O)NCCN1CCOCC1)C1CCC2C3CCC4CC(O)CCC4(C)C3CC(O)C12C", "note": "(stereo not drawn) [Compound C]", "values": [
      {"measurement": "increase of intracellular cAMP via GAVE10 activation", "setting": "GAVE10 [1]", "value": "activate GAVE10 to increase intracellular cAMP"},
      {"measurement": "activation of calcium-signaling pathways via GAVE10 (FLIPR)", "setting": "GAVE10 [2]", "value": "bind to GAVE10 to activate calcium-signaling pathways"}
    ]},
    {"smiles": "C[C@H](CCC(=O)O)[C@H]1CC[C@H]2[C@@H]3CC[C@@H]4C[C@H](O)CC[C@]4(C)[C@H]3C[C@H](O)[C@]12C", "note": "[DCA]", "values": [
      {"measurement": "inhibition of IL-6 production", "setting": "[4]", "value": "inhibit IL-6 production"}
    ]}
  ]
}
